In BindingDB's records for doi:10.1016/j.ejmech.2019.03.019 (Csic - Universidad De Zaragoza, 2019) one finds EC50 data, which are given here for 15 compounds.

Each structure is given as a SMILES string.

The test can be described thus: Inhibition of NS5B RNA dependent RNA polymerase in HCV 1b Con1 infected in human Huh5-2 cells assessed as reduction in viral RNA replication measured after 3 days by luciferase reporter gene assay.
`COC[C@H]1C[C@@](CC(C)C)(C(=O)O)N(C(=O)c2ccc(C(C)(C)C)c(OC)c2)[C@H]1C(N)=O`: the EC50 (as a rule, the concentration giving half of the maximal effect) was 2 µM.
The result for `COC[C@H]1C[C@@](CC(C)C)(C(=O)O)N(C(=O)c2ccc(C(C)(C)C)c(OC)c2)[C@H]1c1nccs1` reads 0.1 µM; that for `COC[C@H]1C[C@@](CC(C)C)(C(=O)O)N(C(=O)c2ccc(C(C)(C)C)c(OC)c2)[C@H]1C(=O)OC`, 7 µM.
Turning to `C=CCOC[C@H]1[C@@H](COC)C[C@@](CC(C)C)(C(=O)O)N1C(=O)c1ccc(C(C)(C)C)c(OC)c1`, the EC50 was determined as 7.5 µM.
The result for `CC[C@H]1[C@@H](COC)C[C@@](CC(C)C)(C(=O)O)N1C(=O)c1ccc(C(C)(C)C)c(OC)c1` reads 40 µM.
The result for `COC[C@H]1C[C@@](CC(C)C)(C(=O)O)N(C(=O)c2ccc(C(C)(C)C)c(OC)c2)[C@H]1COC` reads 0.6 µM.
The result for `COC[C@H]1C[C@@](CC(C)C)(C(=O)O)N(C(=O)c2ccc(C(C)(C)C)c(OC)c2)[C@H]1[C@H]1COC(=O)O1` reads 2 µM; that for `COC[C@H]1C[C@@](CC(C)C)(C(=O)O)N(C(=O)c2ccc(C(C)(C)C)c(OC)c2)[C@H]1CNC(C)=O`, 15 µM.
In the case of `COC[C@H]1C[C@@](CC(C)C)(C(=O)O)N(C(=O)c2ccc(C(C)(C)C)c(OC)c2)[C@H]1[C@H]1COC(C)(C)O1`, the EC50 stood at 60 µM.
The same measure for `COC[C@H]1C[C@@](CC(C)C)(C(=O)O)N(C(=O)c2ccc(C(C)(C)C)c(OC)c2)[C@H]1CN=[N+]=[N-]`: 100 µM; for `COC[C@H]1C[C@@](CC(C)C)(C(=O)O)N(C(=O)c2ccc(C(C)(C)C)c(OC)c2)[C@@H]1c1nccs1`: 15 µM; for `COC[C@H]1C[C@@](CC(C)C)(C(=O)O)N(C(=O)c2ccc(C(C)(C)C)c(OC)c2)[C@H]1COC(=O)OC`: 30 µM.
With `COC[C@H]1C[C@@](CC(C)C)(C(=O)O)N(C(=O)c2ccc(C(C)(C)C)c(OC)c2)[C@H]1CF`, the EC50 came to 45 µM.
The same measure for `CCOC(=O)c1csc([C@H]2[C@@H](COC)C[C@@](CC(C)C)(C(=O)O)N2C(=O)c2ccc(C(C)(C)C)c(OC)c2)n1`: 60 µM; for `COC[C@H]1C[C@@](CC(C)C)(C(=O)O)N(C(=O)c2ccc(C(C)(C)C)c(OC)c2)[C@H]1COC(C)=O`: 30 µM.
